These results are taken from patent publication US9370506B2, “Modulators of aldehyde dehydrogenase and methods of use thereof” (The Board of Trustees of the Leland Stanford Junior …, priority 2008, dated 2016).

What is called EC50 is the concentration that produces a half-maximal response. A lower EC50 goes with a more potent agent.

Numbering of substitutions follows the chain as printed.

The first assay has as its target T1, ALDH2 (Homo sapiens, UniProt P05091, E504K).
T1 sequence (P05091 18-517 E504K): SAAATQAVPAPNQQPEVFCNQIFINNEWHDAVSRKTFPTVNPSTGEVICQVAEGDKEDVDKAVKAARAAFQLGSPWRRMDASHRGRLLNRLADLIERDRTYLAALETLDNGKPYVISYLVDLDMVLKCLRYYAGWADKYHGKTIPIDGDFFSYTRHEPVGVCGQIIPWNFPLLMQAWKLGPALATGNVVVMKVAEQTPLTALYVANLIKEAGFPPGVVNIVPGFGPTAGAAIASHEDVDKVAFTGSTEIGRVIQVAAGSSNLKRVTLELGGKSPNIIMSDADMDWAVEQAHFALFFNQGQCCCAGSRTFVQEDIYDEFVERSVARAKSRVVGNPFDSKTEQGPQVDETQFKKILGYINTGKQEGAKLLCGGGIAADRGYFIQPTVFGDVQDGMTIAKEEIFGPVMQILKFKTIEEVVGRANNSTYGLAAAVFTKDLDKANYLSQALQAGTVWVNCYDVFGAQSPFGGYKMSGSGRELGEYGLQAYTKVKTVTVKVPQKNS
The assay is described as follows: Screening for ALDH2 agonists (NAD+ to NADH, optionally diaphorase/resazurin-coupled). Format: biochemical. To be noted: increase of ALDH2 activity; 10 mM acetaldehyde as substrate. As for the experimental part: Compounds were screened using a method as depicted schematically in FIG. 4. Essentially, the reaction is carried out at 25° C. in 0.1 NaPPi buffer, pH 9.5, 2.4 mM NAD^+ and 10 mM acetaldehyde as the substrate. Enzymatic activity is measured by a reductive reaction of NAD^+ to NADH at 340 nm. Alternatively, the production of NADH can be coupled with another enzymatic reaction that consumes NADH and that provides for a detectable signal. An example of such an enzymatic reaction is a diaphorase-based reaction, which reduces resazurin to its […] fluorescent compound resorufin.
For example, a 120 μl reaction mixture for ALDH enzymatic activity comprises the following components:
43 μl 150 mM sodium pyrophosphate (NaPPi) buffer, pH 9.0;
15 μl 80 mM acetaldehyde;
1 μl of resazurin (0.2 mg/ml in H2O);
1 μl of diaphorase (1 unit, e.g., from Clostridium kluyveri);
2 μl of variant ALDH2 (e.g., 2 μl of variant ALDH2 at (0.5-2 μg/μl); and
28 μl of a solution comprising an agent to be tested, which agent has been resuspended in an appropriate solvent (e.g., an aqueous solution, DMSO, and the like).
Approximately 65,000 compounds were screened. A number of compounds were identified that increase the activity of ALDH2.
On the technique in general: Alamar Blue is a resazurin reagent that responds to reducing activity.
The compound `COc1c(C(=O)NCc2ccc3c(c2)OCO3)ccc2ccccc12` [Alda-52, 1-methoxy-naphthalene-2-carboxylic acid (benzo[1,3]dioxol-5-ylmethyl)-amide] displayed an EC50 of 3 µM.
Same read-out and setting: the same measure for `Cc1cc(C)cc(NC(=O)CSC2=Nc3ccccc3C3=NC(C(C)C)C(=O)N23)c1` (centres unmarked) [Alda-65, N-(3,5-dimethyl-phenyl)-2-(2-isopropyl-3-oxo-2,3-dihydro-imidazo[1,2-c]quinazolin-5-ylsulfanyl)-acetamide]: 8.41 µM; for `O=C(NCc1ccc2c(c1)OCO2)c1cc(-n2cnnc2)ccc1Cl` [Alda-53, N-benzo[1,3]dioxol-5-ylmethyl-2-chloro-5-[1,2,4]triazol-4-yl-benzamide]: 1.09 µM; for `O=C(Cn1c2ccccc2c2cn[nH]c(=O)c21)NCc1ccc2c(c1)OCO2` [Alda-72, N-benzo[1,3]dioxol-5-ylmethyl-2-(1-oxo-1,2-dihydro-2,3,9-triaza-fluoren-9-yl)-acetamide]: 2.92 µM.
Same read-out and setting: the same measure for `CCCCC(=O)Nc1cc(-c2ccc(C)cc2)no1` [Alda-57, pentanoic acid (3-p-tolyl-isoxazol-5-yl)-amide]: 1.4 µM; for `Cc1ccc(CNS(=O)(=O)c2cc(-c3cc(C)no3)ccc2C)cc1` [Alda-60, 2-methyl-N-(4-methyl-benzyl)-5-(3-methyl-isoxazol-5-yl)-benzene sulfonamide]: 4.96 µM.
Take `O=C(C1COc2cc(S(=O)(=O)NCc3ccccc3Cl)ccc2O1)N1CCCCCC1` (centres unmarked) [Alda-64, 2-(azepane-1-carbonyl)-N-(2-chloro-benzyl)-2,3-dihydro-benzo[1,4]dioxine-6-sulfonamide]: the EC50 is 2.2 µM.
Still for that read-out and setting: in the case of `Cc1ccc(CNC(=O)C(C)SC2=Nc3ccccc3C3=NC(C(C)C)C(=O)N23)cc1` (centres unmarked) [Alda-66, 2-(2-isopropyl-3-oxo-2,3-dihydro-imidazo[1,2-c]quinazolin-5-ylsulfanyl)-N-(4-methyl-benzyl)-propionamide] it was 2.66 µM; in that of `COc1ccccc1CNc1nccn(-c2ccc3c(c2)OCCO3)c1=O` [Alda-63, 1-(2,3-dihydro-benzo[1,4]dioxin-6-yl)-3-(2-methoxy-benzylamino)-1H-pyrazin-2-one], 12.4 µM.
On the same count and under the same terms, the same measure for `Cc1ccc(CNS(=O)(=O)c2cc(-c3onc(C)c3C)ccc2C)cc1` [Alda-61, 5-(3,4-dimethyl-isoxazol-5-yl)-2-methyl-N-(4-methyl-benzyl)-benzene sulfonamide]: 6.44 µM.
`COc1cccc(CNc2nccn(-c3ccc(C)c(C)c3)c2=O)c1` [Alda-62, 1-(3,4-dimethyl-phenyl)-3-(3-methoxy-benzylamino)-1H-pyrazin-2-one] gave an EC50 of 14.7 µM.
Same read-out and setting: in the case of `NC(=O)c1cc(S(=O)(=O)NCc2ccc3c(c2)OCO3)cs1` [Alda-59, 4-[(benzo[1,3]dioxol-5-ylmethyl)-sulfamoyl]-thiophene-2-carboxylic acid amide] it was 4.6 µM; in that of `CCOC(=O)c1cc(-c2ccc(C)cc2)n(CCC(=O)N2CCN(c3ccccn3)CC2)c1C` [Alda-56, 2-methyl-1-[3-oxo-3-(4-pyridin-2-yl-piperazin-1-yl)-propyl]-5-p-tolyl-1H-pyrrole-3-carboxylic acid ethyl ester], 3.65 µM; in that of `Cc1ccc(-n2cc(-c3ccccc3)c3c(N4CCN(CCO)CC4)ncnc32)cc1Cl` [Alda-73, 2-{4-[7-(3-chloro-4-methyl-phenyl)-5-phenyl-7H-pyrrolo[2,3-d]pyrimidin-4-yl]-piperazin-1-yl}-ethanol], 3.55 µM.
On the same count and under the same terms, in the case of `CCn1cnc2c(=O)oc3ccc(S(=O)(=O)NCc4ccc5c(c4)OCO5)cc3c21` [Alda-54, 1-ethyl-4-oxo-1,4-dihydro-chromeno[3,4-d]imidazole-8-sulfonic acid (benzo[1,3]dioxol-5-ylmethyl)-amide] it was 1.72 µM.
On the same count and under the same terms, in the case of `Cc1ccc(N2CC(c3nc(-c4cccnc4)no3)CC2=O)cc1Cl` (centres unmarked) [Alda-69, 1-(3-chloro-4-methyl-phenyl)-4-(3-pyridin-3-yl-[1,2,4]oxadiazol-5-yl)-pyrrolidin-2-one] it was 8.9 µM.
On to `Cc1ccc(N2CC(c3nc(-c4ccncc4)no3)CC2=O)cc1F` (centres unmarked) [Alda-70, 1-(3-fluoro-4-methyl-phenyl)-4-(3-pyridin-4-yl-[1,2,4]oxadiazol-5-yl)-pyrrolidin-2-one], for which the EC50 is 5.57 µM.
Compound `Cc1ccc(-n2ncc3c(N(CCO)Cc4ccccc4)ncnc32)cc1Cl` [Alda-67, 2-{benzyl-[1-(3-chloro-4-methyl-phenyl)-1H-pyrazolo[3,4-d]pyrimidin-4-yl]-amino}-ethanol] displayed an EC50 of 3.42 µM.
On to `Cc1ccc(CNC(=O)Cn2c3ccccc3c3cn[nH]c(=O)c32)cc1` [Alda-71, N-(4-methyl-benzyl)-2-(1-oxo-1,2-dihydro-2,3,9-triaza-fluoren-9-yl)-acetamide], for which the EC50 came out at 16.6 µM.

The next assay addresses T2, E488K ALDH1 mutant recombinant protein (Homo sapiens, UniProt P00352, E488K).
T2 sequence (P00352 1-501 E488K): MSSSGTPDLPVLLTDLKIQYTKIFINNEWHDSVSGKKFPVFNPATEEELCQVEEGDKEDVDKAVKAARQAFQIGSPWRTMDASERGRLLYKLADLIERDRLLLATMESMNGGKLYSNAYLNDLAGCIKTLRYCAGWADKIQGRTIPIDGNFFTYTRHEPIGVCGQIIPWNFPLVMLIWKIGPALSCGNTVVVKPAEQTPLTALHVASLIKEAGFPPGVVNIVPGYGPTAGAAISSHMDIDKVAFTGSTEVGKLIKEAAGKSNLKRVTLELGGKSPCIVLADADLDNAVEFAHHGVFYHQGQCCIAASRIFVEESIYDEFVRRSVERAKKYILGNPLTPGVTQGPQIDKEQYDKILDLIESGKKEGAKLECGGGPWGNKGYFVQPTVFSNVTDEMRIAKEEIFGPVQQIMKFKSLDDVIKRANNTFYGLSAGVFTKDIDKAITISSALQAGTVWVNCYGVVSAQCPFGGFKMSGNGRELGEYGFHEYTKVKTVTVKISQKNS
As to the kind of experiment: High throughput screening against E488K ALDH1 mutant. It is filed as biochemical. To be noted: octylaldehyde and phenylacetaldehdye as substrates. The text has this: The screening assays used octylaldehyde (an example of longer chain aliphatic aldehyde) and phenylacetaldehdye (an example of aromatic aldehyde), instead of acetaldehyde.
Turning to `COc1ccc(C2C(C#N)=C(C)NC3=C2C(=O)CC(c2ccc(Cl)cc2)C3)cc1` (centres unmarked) [Alda-83, 7-(4-chloro-phenyl)-4-(4-methoxy-phenyl)-2-methyl-5-oxo-1,4,5,6,7,8-hexahydro-quinoline-3-carbonitrile], the “identified as ALDH1 activator” value is on record as “ALDH1 activators”.
On the same count and under the same terms, in the case of `C=CCn1c(C(C)NC(=O)c2ccccc2)nc2ccccc21` (centres unmarked) [Alda-81, N-[1-(1-allyl-1H-benzoimidazol-2-yl)-ethyl]-benzamide] it was “ALDH1 activators”.

The target in the next assay is T3, ALDH2 isozyme (Homo sapiens, UniProt P05091).
T3 construct: made in house; host or cells: BL21 E. coli
T3 sequence (P05091 18-517): T1 sequence (P05091 18-517 E504K) with K487E
The assay is described as follows: ALDH2 enzymatic activity, spectrophotometric NAD+ to NADH assay. It is filed as biochemical. To be noted: 500 uM & 1000 uM; acetaldehyde as substrate; FIG. 17. As for the experimental part: Reagents for plant-derived compounds safrole, isosafrole, piperine, sesamin, capsaicin were purchased from Sigma-Aldrich Chemicals and dihydromethysticin was purchased from AvaChem. Scientific. Piperine related compounds, Alda-101 to Alda-112, were synthesized by standard organic chemistry. All testing compounds were dissolved in dimethyl-sulfoxide (DMSO) to obtain a stock solution of 20 mM. Different recombinant ALDH isozymes with a His-epitope tag at the N-terminus were constructed, cloned and expressed in BL21 E. coli host cells according published methods (Chen et al., 2008 Science 321:1493). The bacteria were subjected to 0.5 mM IPTG induction for protein expression at 30° C. Purification of the recombinant proteins by affinity nickel columns were carried out using a standard protocol according to manufacturer's instructions (Novagen, Wis., USA).
ALDH enzymatic activity was determined spectrophotometrically using purified recombinant protein (15 ug) in the reductive reaction of NAD^+ to NADH at λ340 nm (Rex et al., 1985, Alcohol Clin Exp Res 9: 147). All the assays in the presence of absence of a testing compound were carried out at 25° C. in […] pyrophosphate buffer, pH=9.5, 2.4 mM NAD+ and 10 mM acetaldehyde or phenylacetaldehyde as a substrate.
`C=CCc1ccc2c(c1)OCO2` [safrole, 5-(2-propenyl)-1,3-benzodioxole]: the “effect on enzymatic activity of ALDH2 isozyme” value is “Inhibitory effect”.

Still in this assay, the particulars now being: 1000 uM; acetaldehyde as substrate; FIG. 18.
On to `C=CCc1ccc2c(c1)OCO2` [safrole, 5-(2-propenyl)-1,3-benzodioxole], for which the “effect on enzymatic activity of ALDH2 isozyme, 15-minute kinetic measurements” value is “inhibitory effect”.
